Experiments:
[1] = tested on: LPS-induced TNFα release in THP-1 cells; assay: LPS-induced TNFα release in THP-1 cells; format: cell-based; settings: Homo sapiens, 3 μg/mL LPS, 4 hr
Method: Cellular Potency as Determined by LPS-Induced TNFα Release in THP-1 Cells
THP-1 cells, a human monocytic cell line, were stimulated with 3 μg/mL of LPS (from E. Coli; 0111:B4, Sigma) for 4 hr and the supernatant collected for determination of the TNFα concentration by sandwich ELISA (Duo-set, R&D systems). The inhibition of TNFα production was calculated at each concentration by comparison with vehicle control. The 50% inhibitory concentration (IC50) was determined from the resultant concentration-response curve.

[2] = tested on: Differentiated U937 cells; assay: MTT assay: cell viability on exposure to test compounds; format: cell-based, human; settings: percentage loss of cell viability vs vehicle, 1 μg/mL; for MTT Assay (Viability) 4 h d-U937: 5% FCS; for MTT Assay (Viability) 24 h d-U937: 10% FCS
Method: MTT Assay: Determination of Cell Viability on Exposure to Test Compounds
Differentiated U937 cells were pre-incubated with each test compound under two protocols: the first for 4 hr in 5% FCS and the second in 10% FCS for 24 h. The supernatant was replaced with 200 μL of new media and 10 μL of MTT stock solution (5 mg/mL) was added to each well. After incubation for 1 hr the media were removed, 200 μL of DMSO was added to each well and the plates were shaken lightly for 1 hr prior to reading the absorbance at 550 nm. The percentage loss of cell viability was calculated for each well relative to vehicle (0.5% DMSO) treatment. Consequently an apparent increase in cell viability for drug treatment relative to vehicle is tabulated as a negative percentage.

[3] = tested on: LPS-induced TNFα release in d-U937 cells; assay: LPS-induced TNFα release in d-U937 cells; format: cell-based; settings: Homo sapiens, dU937, 4 h; read-out: LPS/TNFα REC50 d-U937
Method: (§1) Cellular Potency as Determined by LPS-Induced TNFα/IL-8 Release in d-U937Cells
(§2) U937 cells, a human monocytic cell line, were differentiated to macrophage-type cells by incubation with phorbol myristate acetate (PMA; 100 ng/mL) for 48 to 72 hr. Cells were pre-incubated with final concentrations of test compound for 2 hr and were then stimulated with 0.1 μg/mL of LPS (from E. Coli: O111:B4, Sigma) for 4 hr. The supernatant was collected for determination of TNFα and IL-8 concentrations by sandwich ELISA (Duo-set, R&D systems). […] The relative 50% effective concentration (REC50) was determined from the resultant concentration-response curve. The inhibition of IL-8 production was calculated at each concentration of test compound by comparison with vehicle control. The 50% inhibitory concentration (IC50) was determined from the resultant concentration-response curve.

[4] = tested on: LPS-induced IL-8 release in d-U937 cells; assay: LPS-induced IL-8 release in d-U937 cells; format: cell-based; settings: Homo sapiens, dU937, 0.1 μg/mL LPS, 4 hr
Method: as §1, §2

[5] = molecular target: T1, Recombinant, phosphorylated p38 MAPKγ (MAPK12:Invitrogen) (Homo sapiens, UniProt P53778); assay: p38 MAPKγ enzyme inhibition assay (FRET, Z-LYTE); format: biochemical; settings: 2 hr pre-incubation, ATP 100 μM; read-out: Enzyme Inhibition IC50 p38γ
T1 construct: purchased Invitrogen
T1 sequence (P53778 1-367): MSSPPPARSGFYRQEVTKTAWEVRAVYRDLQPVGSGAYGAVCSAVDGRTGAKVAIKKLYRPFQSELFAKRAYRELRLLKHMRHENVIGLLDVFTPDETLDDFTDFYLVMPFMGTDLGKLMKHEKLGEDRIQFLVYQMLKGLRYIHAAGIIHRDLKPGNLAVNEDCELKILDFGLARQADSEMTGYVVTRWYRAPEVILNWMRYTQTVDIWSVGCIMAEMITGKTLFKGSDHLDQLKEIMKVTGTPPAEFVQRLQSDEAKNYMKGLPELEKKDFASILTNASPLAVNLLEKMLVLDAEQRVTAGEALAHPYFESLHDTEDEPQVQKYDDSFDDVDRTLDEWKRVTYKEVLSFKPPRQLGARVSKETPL
Method: The enzyme inhibitory activities of compounds disclosed herein were determined by fluorescence resonance energy transfer (FRET) using synthetic peptides labelled with both donor and acceptor fluorophores (Z-LYTE, Invitrogen Ltd., Paisley, UK). Recombinant, phosphorylated p38 MAPKγ (MAPK12:Invitrogen) was diluted in HEPES buffer, mixed with the test compound at the desired final concentrations and incubated for 2 hr at RT. The FRET peptide (2 μM) and ATP (100 μM) were added to the enzyme/compound mixture and incubated for 1 hr. Development reagent (protease) was added for 1 hr prior to detection in a fluorescence microplate reader (Varioskan® Flash, ThermoFisher Scientific). The site-specific protease cleaves non-phosphorylated peptide only and eliminates the FRET signal. Phosphorylation levels of each reaction were calculated using the ratio of coumarin emission (donor) over fluorescein emission (acceptor) for which high ratios indicate high phosphorylation and low ratios indicate low phosphorylation levels.

[6] = molecular target: T2, p38 MAPKα isoform (MAPK14: Invitrogen) (Homo sapiens, UniProt Q16539); assay: p38 MAPKα enzyme inhibition assay (FRET, Z-LYTE, via MAPKAP-K2 activation); format: biochemical; settings: 2 hr pre-incubation, ATP 10.0 μM; read-out: Enzyme Inhibition IC50 p38α
T2 construct: purchased Invitrogen

[7] = tested on: Poly I:C-induced ICAM-1 expression in BEAS2B cells; assay: Poly I:C-induced ICAM-1 induction in BEAS2B cells; format: cell-based; settings: Homo sapiens, BEAS-2B, poly I:C 1 μg/mL, 18 hr, read-out: PolyI:C/ICAM1 IC50 BEAS2B
Method: Cellular Potency as Determined by Poly I:C-Induced ICAM-1 Induction in BEAS2B Cells
Poly I:C (1 μg/mL) (Invivogen Ltd., San Diego, Calif.) was transfected into BEAS2B cells (human bronchial epithelial cells, ATCC) with Oligofectamine (Invitrogen, Carlsbad, Calif.). Cells were pre-incubated with final concentrations of test compounds for 2 hr and the level of ICAM1 expression on the cell surface was determined by cell-based ELISA. At a time point 18 hr after poly I:C transfection, cells were fixed with 4% formaldehyde in PBS and then endogenous peroxidase was quenched by the addition of 0.1% sodium azide and 1% hydrogen peroxide. Cells were washed with wash-buffer (0.1% Tween in PBS: PBS-Tween). and after blocking the wells with 5% milk in PBS-Tween for 1 hr, the cells were incubated with anti-human ICAM-1 antibody (Cell Signaling Technology, Danvers, Mass.) in 1% BSA PBS overnight at 4° C. The cells were washed with PBS-Tween and incubated with the secondary antibody (HRP-conjugated anti-rabbit IgG, Dako Ltd., Glostrup, Denmark). The ICAM-1 signal was detected by adding substrate and reading the absorbance at 450 nm against a reference wavelength of 655 nm using a spectrophotometer. The cells were then washed with PBS-Tween and total cell numbers in each well were determined by reading absorbance at 595 nm after Crystal Violet staining and elution by 1% SDS solution. The measured OD 450-655 readings were corrected for cell number by dividing with the OD595 reading in each well. The inhibition of ICAM-1 expression was calculated at each concentration of test compound by comparison with vehicle control. The 50% inhibitory concentration (IC50) was determined from the resultant concentration-response curve.

T2 sequence (Q16539 whole entry, canonical isoform): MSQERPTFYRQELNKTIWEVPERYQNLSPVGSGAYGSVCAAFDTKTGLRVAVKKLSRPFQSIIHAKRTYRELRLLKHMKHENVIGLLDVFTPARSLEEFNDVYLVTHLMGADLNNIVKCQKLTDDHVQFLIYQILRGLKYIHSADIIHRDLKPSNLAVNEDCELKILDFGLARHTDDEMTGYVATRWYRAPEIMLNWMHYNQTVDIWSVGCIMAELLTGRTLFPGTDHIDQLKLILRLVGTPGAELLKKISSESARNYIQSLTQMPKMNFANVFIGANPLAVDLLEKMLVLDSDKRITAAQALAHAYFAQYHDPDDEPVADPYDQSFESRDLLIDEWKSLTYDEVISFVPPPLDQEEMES

| IC50 [1] [nM] | EC50 [3] [nM] | IC50 [4] [nM] | IC50 [5] [nM] | IC50 [6] [nM] | SMILES | MTT Assay (Viability) 4 h d-U937 [2] [%] | MTT Assay (Viability) 24 h d-U937 [2] [%] | IC50 [7] [nM] |
| --- | --- | --- | --- | --- | --- | --- | --- | --- |
| 0.7 | 0.03 | 0.1 | 138 | 4.1 | COc1ccc(-n2nc(C(C)(C)C)cc2NC(=O)Nc2ccc(Oc3ccnc(NC(=O)N(C)C)c3)c3ccccc23)cc1 [Example 7, 3-(4-(4-(3-(3-tert-Butyl-1-(4-methoxyphenyl)-1H-pyrazol-5-yl)ureido)naphthalen-1-yloxy)pyridin-2-yl)-1,1-dimethylurea] | −13.3 | −39.1 | 1.9 |
| 1.6 | 0.6 | 1.2 | 228 | 16.6 | COc1ccc(-n2nc(C(C)(C)C)cc2NC(=O)Nc2ccc(Oc3ccnc(NC(=O)N4CCCC4)c3)c3ccccc23)cc1 [Example 8, N-(4-(4-(3-(3-tert-Butyl-1-(4-methoxyphenyl)-1H-pyrazol-5-yl)ureido)naphthalen-1-yloxy)pyridin-2-yl)pyrrolidine-1-carboxamide] | −20.1 | −77.9 | 1.4 |
| 0.5 | 0.6 | 1.4 | 203 | 2.7 | COc1ccc(-n2nc(C(C)(C)C)cc2NC(=O)Nc2ccc(Oc3ccnc(NC(=O)N4CCOCC4)c3)c3ccccc23)cc1 [Example 9, N-(4-((4-(3-(3-tert-Butyl-1-(4-methoxyphenyl)-1H-pyrazol-5-yl)ureido)naphthalen-1-yl)oxy)pyridin-2-yl)morpholine-4-carboxamide] | −5.7 | 18.6 | 2.1 |
| 1.6 | 1.5 | 2.3 | 104 | 4.7 | COc1ccc(-n2nc(C(C)(C)C)cc2NC(=O)Nc2ccc(Oc3ccnc(NC(=O)N4CCN(C)CC4)c3)c3ccccc23)cc1 [Example 10, N-(4-(4-(3-(3-tert-Butyl-1-(4-methoxyphenyl)-1H-pyrazol-5-yl)ureido)naphthalen-1-yloxy)pyridin-2-yl)-4-methyl piperazine-1-carboxamide] | −12.5 | −21.2 | 3.5 |
| 0.6 | 0.2 | 3.6 | 151 | 4 | COCC(=O)Nc1cc(Oc2ccc(NC(=O)Nc3cc(C(C)(C)C)nn3-c3ccc(OC)c(OC)c3)c3ccccc23)ccn1 [Example 11, N-(4-(4-(3-(3-tert-Butyl-1-(3,4-dimethoxyphenyl)-1H-pyrazol-5-yl)ureido)naphthalen-1-yloxy)pyridin-2-yl)-2-methoxyacetamide] | −9.3 | −0.8 | 2.5 |
| 3.3 | 0.4 | 8.4 | 147 | 2.7 | CC(C)(C)c1cc(NC(=O)Nc2ccc(Oc3ccnc(NC(=O)N4CCOCC4)c3)c3ccccc23)n(-c2ccc(O)c(Cl)c2)n1 [Example 12, N-(4-((4-(3-(3-(tert-Butyl)-1-(3-chloro-4-hydroxyphenyl)-1H-pyrazol-5-yl)ureido)naphthalen-1-yl)oxy)pyridin-2-yl)morpholine-4-carboxamide] | −6.2 | −42.9 | 3.2 |
| 3.2 | 0.6 | 7.3 | 400 | 17 | CSc1ccc(-n2nc(C(C)(C)C)cc2NC(=O)Nc2ccc(Oc3ccnc(NC(=O)N4CCCC4)c3)c3ccccc23)cc1 [Example 14, N-(4-(4-(3-(3-tert-Butyl-1-(4-(methylthio)phenyl)-1H-pyrazol-5-yl)ureido)naphthalen-1-yloxy)pyridin-2-yl)pyrrolidine-1-carboxamide] | −0.4 | −50.0 | 1.9 |

— patent US9024041B2, “P38 MAP kinase inhibitors” (Respivert Ltd., priority 2010, dated 2015)
